In ChEMBL document CHEMBL5532655, “Discovery of (R)-4-(8-methoxy-2-methyl-1-(1-phenylethy)-1H-imidazo[4,5-c]quinnolin-7-yl)-3,5-dimethylisoxazole as a potent and selective BET inhibitor for treatment of acute myeloid leukemia (AML) guided by FEP calculation” (Eur J Med Chem, 2024):
Activity calls are given as the source filed them. The calls are words filed in the database; no cut-off is given here.

What was measured:
[1] = tested on: MV4-11; test: Induction of apoptosis in human MV4-11 cells assessed as early apoptotic cells at 1.25 uM incubated for 24 hrs by annexin V-FITC/PI staining based flow cytometric analysis (reference value: 0%); format: functional
[2] = tested on: MV4-11; test: Induction of apoptosis in human MV4-11 cells assessed as early apoptotic cells at 0.625 uM incubated for 24 hrs by annexin V-FITC/PI staining based flow cytometric analysis (reference value: 0%); format: functional
[3] = Volume of distribution at steady state in Sprague-Dawley rat at 1 mg/kg,iv administration measured upto 24 hrs by LC-MS/MS analysis; format: ADME, organism-based; conditions: in vivo, read-out: Vdss
[4] = Apparent oral clearance in Sprague-Dawley rat at 10 mg/kg,po administration measured upto 24 hrs by LC-MS/MS analysis; format: ADME, organism-based; conditions: in vivo
[5] = AUC (0-t) in Sprague-Dawley rat at 10 mg/kg,po administration measured upto 24 hrs by LC-MS/MS analysis; format: ADME, organism-based; conditions: in vivo
[6] = Apparent volume of distribution during terminal phase in Sprague-Dawley rat at 10 mg/kg,po administration measured upto 24 hrs by LC-MS/MS analysis; format: ADME, organism-based; conditions: in vivo, read-out: Vz/F
[7] = Tmax in Sprague-Dawley rat at 10 mg/kg,po administration measured upto 24 hrs by LC-MS/MS analysis; format: ADME, organism-based; conditions: in vivo
[8] = tested on: MV4-11; test: Induction of apoptosis in human MV4-11 cells assessed as viable cells at 0.625 uM incubated for 24 hrs by annexin V-FITC/PI staining based flow cytometric analysis (reference value: 97%); format: functional; conditions: Homo sapiens, MV4-11, read-out: Activity
[9] = tested on: MV4-11; test: Induction of apoptosis in human MV4-11 cells assessed as viable cells at 1.25 uM incubated for 24 hrs by annexin V-FITC/PI staining based flow cytometric analysis (reference value: 97%); format: functional; conditions: Homo sapiens, MV4-11, read-out: Activity
[10] = tested on: MV4-11; test: Induction of apoptosis in human MV4-11 cells assessed as viable cells at 2.5 uM incubated for 24 hrs by annexin V-FITC/PI staining based flow cytometric analysis (reference value: 97%); format: functional; conditions: Homo sapiens, MV4-11, read-out: Activity
[11] = tested on: MV4-11; test: Induction of apoptosis in human MV4-11 cells assessed as early apoptotic cells at 5 uM incubated for 24 hrs by annexin V-FITC/PI staining based flow cytometric analysis (reference value: 0%); format: functional
[12] = tested on: MV4-11; test: Induction of apoptosis in human MV4-11 cells assessed as early apoptotic cells at 10 uM incubated for 24 hrs by annexin V-FITC/PI staining based flow cytometric analysis (reference value: 0%); format: functional
[13] = tested on: MV4-11; test: Induction of apoptosis in human MV4-11 cells assessed as late apoptotic cells at 1.25 uM incubated for 24 hrs by annexin V-FITC/PI staining based flow cytometric analysis (reference value: 0.04 %); format: functional
[14] = tested on: MV4-11; test: Induction of apoptosis in human MV4-11 cells assessed as late apoptotic cells at 2.5 uM incubated for 24 hrs by annexin V-FITC/PI staining based flow cytometric analysis (reference value: 0.04 %); format: functional
[15] = tested on: MV4-11; test: Induction of apoptosis in human MV4-11 cells assessed as late apoptotic cells at 5 uM incubated for 24 hrs by annexin V-FITC/PI staining based flow cytometric analysis (reference value: 0.04 %); format: functional
[16] = tested on: MV4-11; test: Induction of apoptosis in human MV4-11 cells assessed as late apoptotic cells at 10 uM incubated for 24 hrs by annexin V-FITC/PI staining based flow cytometric analysis (reference value: 0.04 %); format: functional
[17] = tested on: MV4-11; test: Induction of apoptosis in human MV4-11 cells assessed as necrotic cells at 10 uM incubated for 24 hrs by annexin V-FITC/PI staining based flow cytometric analysis (reference value: 2.35 %); format: functional
[18] = tested on: MV4-11; test: Induction of cell cycle arrest in human MV4-11 cells assessed as accumulation of cells at G0/G1 phase at 0.3125 uM incubated for 24 hrs by propidium iodide staining flow cytometric analysis (reference value: 37.64 %); format: functional
[19] = tested on: MV4-11; test: Induction of cell cycle arrest in human MV4-11 cells assessed as accumulation of cells at G0/G1 phase at 0.625 uM incubated for 24 hrs by propidium iodide staining flow cytometric analysis (reference value: 37.64 %); format: functional
[20] = tested on: MV4-11; test: Induction of cell cycle arrest in human MV4-11 cells assessed as accumulation of cells at G0/G1 phase at 2.5 uM incubated for 24 hrs by propidium iodide staining flow cytometric analysis (reference value: 37.64 %); format: functional
[21] = tested on: MV4-11; test: Induction of cell cycle arrest in human MV4-11 cells assessed as accumulation of cells at G2/M phase at 1.25 uM incubated for 24 hrs by propidium iodide staining flow cytometric analysis (reference value: 18 %); format: functional
[22] = tested on: MV4-11; test: Induction of cell cycle arrest in human MV4-11 cells assessed as accumulation of cells at G2/M phase at 2.5 uM incubated for 24 hrs by propidium iodide staining flow cytometric analysis (reference value: 18 %); format: functional
[23] = tested on: MV4-11; test: Induction of cell cycle arrest in human MV4-11 cells assessed as accumulation of cells at S phase at 0.3125 uM incubated for 24 hrs by propidium iodide staining flow cytometric analysis (reference value: 43.94 %); format: functional
[24] = tested on: MV4-11; test: Induction of cell cycle arrest in human MV4-11 cells assessed as accumulation of cells at S phase at 0.625 uM incubated for 24 hrs by propidium iodide staining flow cytometric analysis (reference value: 43.94 %); format: functional
[25] = tested on: MV4-11; test: Induction of cell cycle arrest in human MV4-11 cells assessed as accumulation of cells at S phase at 1.25 uM incubated for 24 hrs by propidium iodide staining flow cytometric analysis (reference value: 43.94 %); format: functional
[26] = tested on: MV4-11; test: Induction of cell cycle arrest in human MV4-11 cells assessed as accumulation of cells at S phase at 5 uM incubated for 24 hrs by propidium iodide staining flow cytometric analysis (reference value: 43.94 %); format: functional
[27] = tested on: MV4-11; test: Induction of apoptosis in human MV4-11 cells assessed as downregulation of CDK6 expression at 0.3125 to 2.5 uM incubated for 48 hrs by Western blotting analysis; format: functional, cell-based; conditions: dose 0.3125-2.5 µM
[28] = tested on: MV4-11; test: Induction of apoptosis in human MV4-11 cells assessed as upregulation of p21 expression at 0.3125 to 2.5 uM incubated for 48 hrs by Western blotting analysis; format: functional, cell-based; conditions: dose 0.3125-2.5 µM
[29] = tested on: MV4-11; test: Induction of apoptosis in human MV4-11 cells assessed as upregulation of PARP expression at 0.3125 to 2.5 uM incubated for 48 hrs by Western blotting analysis; format: functional, cell-based; conditions: dose 0.3125-2.5 µM
[30] = tested on: MV4-11; test: Induction of apoptosis in human MV4-11 cells assessed as downregulation of c-Myc expression at 500 nM hrs by Western blotting analysis; format: functional, cell-based; conditions: TDE = time-dependent effect
[31] = tested on: MV4-11; test: Induction of apoptosis in human MV4-11 cells assessed as upregulation of PARP expression at 500 nM hrs by Western blotting analysis; format: functional, cell-based; conditions: TDE = time-dependent effect
[32] = tested on: MV4-11; test: Induction of apoptosis in human MV4-11 cells assessed as upregulation of cleaved PARP expression at 500 nM hrs by Western blotting analysis; format: functional, cell-based; conditions: TDE = time-dependent effect
[33] = tested on: MV4-11; test: Induction of apoptosis in human MV4-11 cells assessed as upregulation of p21 expression at 500 nM hrs by Western blotting analysis; format: functional, cell-based; conditions: TDE = time-dependent effect
[34] = tested on: MV4-11; test: Antitumor activity against human MV4-11 cells xenografted in BALB/c mouse assessed as tumor growth inhibition at 50 mg/kg administration relative to control; format: functional; conditions: read-out: TGI

Question: For `COc1cc2c(cc1-c1c(C)noc1C)ncc1nc(C)n([C@H](C)c3ccccc3)c12`, which Activity [1] is on record?
Answer: Its Activity is 6.62%.

Question: And the Activity [2]?
Answer: The Activity was 6.87%.

Question: And the Vd [3]?
Answer: Its Vd is 0.6 L/kg.

Question: What about the CL/F [4] of the same molecule?
Answer: The CL/F was 10.4 mL/min/kg.

Question: And the AUC(0-t) at 24 h [5]?
Answer: Its AUC(0-t) at 24 h is 16000 ng·h/mL.

Question: And the Vd/F [6]?
Answer: The Vd/F was 2.39 L/kg.

Question: And the Tmax [7]?
Answer: Its Tmax is 1 h.

Question: What about the viability at 0.625 µM [8] of the same molecule?
Answer: Its viability at 0.625 µM is 68.2%.

Question: What about the viability at 1.25 µM [9] of the same molecule?
Answer: Its viability at 1.25 µM is 83.1%.

Question: What about the viability at 2.5 µM [10] of the same molecule?
Answer: The viability at 2.5 µM was 81.7%.

Question: And the Activity [11]?
Answer: Its Activity is 8.46%.

Question: What about the Activity [12] of the same molecule?
Answer: The Activity was 10.04%.

Question: What about the Activity [13] of the same molecule?
Answer: Its Activity is 6.32%.

Question: What about the Activity [14] of the same molecule?
Answer: The Activity was 9.68%.

Question: What about the Activity [15] of the same molecule?
Answer: Its Activity is 12.62%.

Question: And the Activity [16]?
Answer: Its Activity is 11.62%.

Question: What about the Activity [17] of the same molecule?
Answer: Its Activity is 8%.

Question: And the Activity [18]?
Answer: The Activity was 48.98%.

Question: And the Activity [19]?
Answer: The Activity was 61.2%.

Question: And the Activity [20]?
Answer: Its Activity is 72.14%.

Question: What about the Activity [21] of the same molecule?
Answer: Its Activity is 5.16%.

Question: What about the Activity [22] of the same molecule?
Answer: The Activity was 7.33%.

Question: What about the Activity [23] of the same molecule?
Answer: Its Activity is 44.55%.

Question: What about the Activity [24] of the same molecule?
Answer: Its Activity is 44.55%.

Question: And the Activity [25]?
Answer: The Activity was 23.31%.

Question: What about the Activity [26] of the same molecule?
Answer: The Activity was 17.41%.

Question: And the Activity [27]?
Answer: The Activity was “Active”.

Question: What about the Activity [28] of the same molecule?
Answer: Its Activity is “Active”.

Question: And the Activity [29]?
Answer: The Activity was “Active”.

Question: What about the Activity [30] of the same molecule?
Answer: Its Activity is “Tde”.

Question: What about the Activity [31] of the same molecule?
Answer: The Activity was “Tde”.

Question: What about the Activity [32] of the same molecule?
Answer: The Activity was “Tde”.

Question: And the Activity [33]?
Answer: Its Activity is “Tde”.

Question: And the inhibition in vivo at 50 mg/kg [34]?
Answer: Its inhibition in vivo at 50 mg/kg is 70.4%.
